Results as given in patent US11324774B2, “Compositions of oral alkaline salts and metabolic acid inducers and uses thereof” (Augusta University Research Institute, Inc., priority 2018, dated 2022).
Read-outs that look alike come from different tables or passages of the source.

Key:
[1] = Protocol: Serum Electrolytes: Blood samples were collected via an intravenous catheter (Nexiva™ Becton Dickinson, Franklin Lakes, N.J.) at baseline and at 60 minute intervals post-treatment to examine changes in serum electrolyte balance (Na, K, and Cl^−).
[2] = test system: kidney cells (M1/M2 macrophages); settings: 4 days
[3] = test system: parasympathetic activity
Protocol: Changes in heart rate (HR) and RR-interval were monitored over the last 5 min of a 15 min period of quiet rest in a supine position to establish baseline values. Time-domain indices of heart rate variability (HRV) including the root mean square differences of successive normal sinus RR intervals (rMSSD) and the percentage of successive normal sinus RR intervals >50 ms (pNN50) were calculated from a 3-lead ECG that was continuously recorded via a Finapres NOVA (Finapres Medical Systems, The Netherlands). Following treatment an additional 5 min segment of data was collected in the same manner and used to calculate post-treatment values of rMSSD and pNN50.
Parasympathetic activity was determined as described above. Potassium levels were determined using standard clinical laboratory procedures (Labcorp).

[4] = test system: blood; settings: 0.1M NaHCO3 in drinking water
Protocol: Flow cytometry: With the exception of one group of rats (n=5+5), in all HS fed Dah SS rats, blood pressure telemetry devices were implanted prior to beginning the study. […] No surgical procedures were performed on LS fed Dahl SS rats or Sprague Dawley rats prior to tissue harvest. On the day of tissue harvest rats were anesthetized with isoflurane (2-5%) and a midline incision was performed. The abdominal aorta was catheterized for the collection of ˜2mL of arterial blood in a heparinized tube and the left kidney excised and immediately processed for flow cytometry. Antibody markers utilized for flow cytometry as well as references are given in the online methods.
In all flow studies, cells were then incubated with antibodies for surface markers for 20 minutes on ice in the dark (all antibodies from Pharmingen-BD-Biosciences, San Jose, Calif.). Cells were then washed with PBS, fixed and permeabilized using FOXP3/Transcription Factor Fix/Perm Buffer (eBiosciences, San Diego, Calif.) for 15 minutes in the dark on ice, and washed once again with PBS before incubation with antibodies for intracellular staining of Foxp3, TNFa, IL-10, and IL-17, on ice in the dark for 20 minutes (BD Biosciences). Cells were then washed and run through a four-color flow cytometer (FACS Calibur, Becton-Dickinson), and data were collected using CellQuest software.
In all flow studies, group identifiers were removed and flow cytometry analysis was performed by an investigator unaware of the hypothesis or the origin of samples. Samples were double-stained with control IgG and cell markers and were used to assess any spillover signal of fluorochromes; proper compensation was set to ensure the median fluorescence intensities of negative and positive cells were identical and were both gated populations. Gating was used to exclude dead cells and debris using forward and side scatterplots. In each analysis, 100,000 total events were collected. As a gating strategy, for each sample, isotype-matched controls were analyzed to set the appropriate gates. For each marker, samples were analyzed in duplicate measurements. To minimize false-positive events, the number of double- positive events detected with the isotype controls was subtracted from the number of double-positive cells stained with corresponding antibodies (not isotype control), respectively. Cells expressing a specific marker were reported as a percentage of the number of gated events.
Rat protocols: Dahl SS rats: All rats were maintained on low salt chow with ad libitum water (tap water). […] Following four days of low salt (LS) feeding, rats were placed on an 8% HS diet (AIN76A 8%; Dyets) for two weeks. 24 hour urine collections were obtained on day 3 of low salt and day 7 and day 14 of high salt feeding if applicable. Following 14 days of HS feeding, rats were anesthetized with isoflurane (2-5%) and tissue harvested for analysis.
Dahl SS rats on the LS protocol were treated identically to the HS protocol above except following 4 days of LS rats were anesthetized and tissue harvested for flow cytometric analysis prior to beginning a HS diet.

[5] = test system: spleen cells (M1/M2 macrophages)
[6] = test system: kidney cells (M1/M2 macrophages)
[7] = test system: TNF-α expressing splenic cells; settings: spleens of rats, given orally in drinking solution
Protocol: To identify and evaluate immune cells in splenic tissues, a flow cytometry-based assay was employed. Buffering capacity and pH were determined by titration of the solutions with HCl.
To identify and evaluate immune cells in splenic tissues, a flow cytometry-based assay was used.

[8] = Spleen, 14 Days HS, 0.1M NaHCO3 in drinking water
[9] = Kidney, 14 Days HS, 0.1M NaHCO3 in drinking water
[10] = Kidney, 3 days LS, 0.1M NaHCO3 in drinking water

Compound: O=C([O-])O.[Na+] [NaHCO3, sodium bicarbonate]
- serum potassium ([1]; after single 2 g dose): decreased
- Na ([1]; serum, Post-treatment, single 2 g dose in 250 ml water): 140.8 ± 0.5 mmol/L
- dose dependence of the effect on polarization ([2]; 0.01M to 0.1M NaHCO3 in drinking water): dose dependent
- lowest NaHCO3 concentration in drinking water with changes in polarization ([2]; low salt laboratory chow): 0.01 M
- macrophage polarization in the kidney ([2]; out-bred Sprague Dawley rats): promote M2 polarization
- parasympathetic activity (rMSSD) ([3]; ingestion for 2 weeks): improves
- parasympathetic activity (rMSSD) ([3]; single dose, 60 minutes): improves
- CD3 (% total kidney) ([4]; 14 Days HS): 57 ± 2%
- CD4 (% of CD3) ([4]; 14 Days HS): 53 ± 2%
- CD44 (% of CD3) ([4]; 14 Days HS): 14 ± 2%
- CD69 (% of CD3) ([4]; 14 Days HS): 0.9 ± 0.3%
- FOXP3 (% of CD3/CD4) ([4]; 14 Days HS): 4.4 ± 0.6%
- IL-17 (% of total kidney) ([4]; 14 Days HS): 6 ± 1%
- CD3 ([4]; 3 days LS): 57 ± 2%
- CD4 ([4]; 3 days LS): 55 ± 1%
- CD44 ([4]; 3 days LS): 18 ± 1%
- CD69 ([4]; 3 days LS): 1.6 ± 0.5%
- FOXP3 ([4]; 3 days LS): 5.8 ± 0.7%
- IL-17 ([4]; 3 days LS): 5.6 ± 1.1%
- CD3 [5, 8]: 15.3 ± 0.8%
- CD4 [5, 8]: 53 ± 1%
- CD11b/c [5, 8]: 7.3 ± 0.6%
- CD44 [5, 8]: 35 ± 2%
- CD69 [5, 8]: 7.2 ± 0.9%
- FOXP3 [5, 8]: 6 ± 0.5%
- IL-10 [5, 8]: 7.5 ± 0.7%
- IL-17 [5, 8]: 2.8 ± 0.6%
- M1 [5, 8]: 5.8 ± 0.5%
- M2 [5, 8]: 8.3 ± 0.5%
- TNFα [5, 8]: 3 ± 0.5%
- macrophage polarization in splenic tissue ([5]; high salt fed, p=0.005): polarization from predominately M1 to M2
- IL-10 expressing macrophages (M2-polarized macrophages) in the kidney ([6]; 14 days HS): increase
- TNFα expressing macrophages (M1-polarized macrophages) in the kidney ([6]; 14 days HS, p<0.01): decrease
- CD3 (% total kidney) [6, 9]: 1.8 ± 0.3%
- CD4 (% of CD3) [6, 9]: 55 ± 2%
- CD11b/c (% total kidney) [6, 9]: 0.4 ± 0.04%
- CD44 (% of CD3) [6, 9]: 36 ± 5%
- CD69 (% of CD3) [6, 9]: 2.8 ± 0.7%
- FOXP3 (% of CD3/CD4) [6, 9]: 3.3 ± 0.5%
- IL-10 (% of total kidney) [6, 9]: 4.2 ± 0.3%
- IL-17 (% of total kidney) [6, 9]: 0.7 ± 0.1%
- M1 (% of total kidney) [6, 9]: 0.12 ± 0.02%
- M2 (% of total kidney) [6, 9]: 0.2 ± 0.03%
- TNFα (% of total kidney) [6, 9]: 2.0 ± 0.3%
- CD3 [6, 10]: 1.1 ± 0.3%
- CD4 [6, 10]: 54 ± 2%
- CD11b/c [6, 10]: 0.24 ± 0.02%
- CD44 [6, 10]: 52 ± 3%
- CD69 [6, 10]: 0.9 ± 0.3%
- FOXP3 [6, 10]: 2.6 ± 0.5%
- IL-10 [6, 10]: 4.8 ± 0.5%
- IL-17 [6, 10]: 0.4 ± 0.2%
- M1 [6, 10]: 0.16 ± 0.04%
- M2 [6, 10]: 0.36 ± 0.02%
- TNFα [6, 10]: 1.4 ± 0.2%
- effect of NaHCO3 to promote M1 to M2 polarization in the kidney ([6]; after removal of the spleen or manipulation of the spleen to midline, HS diet for 2 weeks): completely abolished
- macrophage polarization in kidney tissue ([6]; low salt fed Dahl SS rats, p=0.007): polarization from predominately M1 to M2
- macrophage polarization with both marker sets ([6]; spleen and kidney, 14 days HS, alternative markers CD68/CD163/CD206): M1 to M2 polarization
- number of TNF-α (inflammatory) expressing cells [7]: significantly reduced
